Measured values taken from publication PMC11876601 (Molecular Systems Biology, 2025).
“And” between values parts separate entries of the source, which are not always exact repeats. Equal values may be shown once. Read-outs that look alike come from different tables or passages of the source.

How the values were obtained:
TBKBP1 = tested on: TBKBP1; parameters: method as in Klaeger et al. (2017); conditions: lysate 4 cell line mix (Colo205, K-562, MV-4-11, and SK-N-BE(2)), Kinobeads y, ref Klaeger et al. (2017); cited from earlier work
MAP4K3 = tested on: MAP4K3; parameters: method as in Klaeger et al. (2017); conditions: lysate 4 cell line mix (Colo205, K-562, MV-4-11, and SK-N-BE(2)), Kinobeads y, ref Klaeger et al. (2017); cited from earlier work
MARK2 = conditions: MARK2, 5 cell line mix lysate, Kinobeads ε, ref Reinecke et al. (2023), cited from earlier work
PRKAB2 = tested on: PRKAB2; parameters: method as in Reinecke et al. (2023); conditions: PRKAB2, 5 cell line mix lysate, Kinobeads ε, ref Reinecke et al. (2023), cited from earlier work
PRKAB1 = tested on: PRKAB1; parameters: method as in Reinecke et al. (2023); conditions: PRKAB1, 5 cell line mix lysate, Kinobeads ε, ref Reinecke et al. (2023), cited from earlier work
PRKAA1 = tested on: PRKAA1; parameters: method as in Reinecke et al. (2023); conditions: PRKAA1, 5 cell line mix lysate, Kinobeads ε, ref Reinecke et al. (2023), cited from earlier work
HCK = target: HCK; parameters: method as in Reinecke et al. (2023); conditions: 5 cell line mix lysate, Kinobeads ε, ref Reinecke et al. (2023), cited from earlier work
ABL2 = tested on: ABL2; parameters: method as in Reinecke et al. (2023); conditions: ABL2, 5 cell line mix lysate, Kinobeads ε, ref Reinecke et al. (2023), cited from earlier work
BUB1 = tested on: BUB1; parameters: method as in Reinecke et al. (2023); conditions: BUB1, 5 cell line mix lysate, Kinobeads ε, ref Reinecke et al. (2023), cited from earlier work
PDO UME051 = assay: PDO viability assay (CellTiter-Glo, 72 h); type: cell-based, human; parameters: Curve bottom: scale not given here;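 on Curve top: fraction of plate-wise median vehicle signal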
Description: Primary patient-derived PDAC organoid (PDO) experiments were performed in the laboratories of Prof. Maximilian Reichert (University Hospital of the TU Munich, Germany, PDO set 1: B250, B535, B678) and Prof. Jens T. Siveke (University Hospital Essen, Germany; PDO set 2: UME008, UME012, UME051, UME053, UME060, UME061). PDOs were generated from surgical resection, EUS-guided fine needle biopsy (EUS-FNB), or ascites (Appendix Table S2). Surgical specimens were first minced with a sterile scalpel and subsequently washed with Anti-Anti solution and washing medium (PDO set 1), or vice versa (PDO set 2; Appendix Table S3). Biopsy samples were directly washed with an Anti-Anti solution and washing medium. Samples were digested using 1 ml of digestion medium at 37 °C while shaking, and the enzymatic reaction was stopped by adding 15 ml of washing medium (Appendix Table S3). If samples of PDO set 1 were blood-stained, tissue pellets were first incubated with ACK lysing buffer/red blood cells lysis buffer (Thermo Fisher Scientific) for 5 min and then digested using TrypLE (Thermo Fisher Scientific). The reversed procedure was applied for blood-stained samples of PDO set 2. For PDO generation from ascites, the material was first spun down at 500 × g for 5 min. Then, washing medium was added and the suspension was centrifuged at 300 × g for 5 min. If the pellet was blood-stained, ACK lysis buffer was added and incubated at room temperature.
For viability assays in PDOs, confluent organoids were removed from medium, and Matrigel was dissolved by adding 200 μl (PDO set 1) or 2 ml (PDO set 2) of Cell Recovery Solution (Corning), and additionally 500 μl of DPBS (PDO set 1 only). Samples were transferred into a falcon and incubated on ice for 30 min, followed by centrifugation at 300 × g at 4 °C for 5 min (after adding 10 ml washing medium for PDO set 2). Subsequently, TrypLE Express Enzyme (Thermo Fisher) was added to cell pellets and incubated for 2 × 5 min at 37 °C. The enzymatic reaction was quenched by DPBS (PDO set 1) or washing medium (PDO set 2), and samples were washed by centrifugation at 300 × g at 4 °C for 5 min. Five hundred cells/well were seeded in 384-well plates (Corning) in 50 μl of PDO medium containing 10% Matrigel. To allow PDO generation, cells were incubated for 4 days at 37 °C and 5% CO2. […] Experiments were pipetted manually (PDO set 1) or automatically using a TECAN D300e Digital Dispenser (HP; PDO set 2). Treatments were performed in eight replicates, except for PDO PPES045 (quadruplicates). After 72 h, cell viability was measured using the CellTiter-Glo Luminescent Cell Viability Assay (Promega) diluted 1:5 in the final volume of the well. After 20 min of incubation at room temperature under gentle shaking, the acquisition was performed in the microplate reader VantaSTAR (BMG Labtech) using 3000 gain for the amplification measurement of a detected signal (PDO set 1) or the Spark Multimode microplate reader (TECAN) at 800 ms integration time (PDO set 2).

[1] = PDO UME051, GEM + Elimusertib (ATRi) dose1, per replicate
[2] = PDO UME051, GEM + Elimusertib (ATRi) dose2, per replicate
[3] = PDO UME051, GEM + Elimusertib (ATRi) dose3, per replicate
[4] = PDO UME051, GEM alone, per replicate

SMILES: C[C@]12O[C@H](C[C@]1(O)CO)n1c3ccccc3c3c4c(c5c6ccccc6n2c5c31)CNC4=O [Lestaurtinib]
- EC50 (TBKBP1): 1010 nM

SMILES: COc1cc(N2CCC(N3CCN(C)CC3)CC2)ccc1Nc1ncc(Cl)c(Nc2ccccc2P(C)(C)=O)n1 [Brigatinib]
- EC50 (MARK2): 247 nM
- pKDapp (MARK2): 6.73
- Kd (MARK2; read-out: KDapp): 186 nM
- EC50 (PRKAB2): 546 nM
- pKDapp (PRKAB2): 6.48
- Kd (PRKAB2; read-out: KDapp): 328 nM
- EC50 (PRKAB1): 507 nM
- pKDapp (PRKAB1): 6.47
- Kd (PRKAB1; read-out: KDapp): 335 nM
- EC50 (PRKAA1): 1110 nM
- pKDapp (PRKAA1): 6.15
- Kd (PRKAA1; read-out: KDapp): 709 nM
- Kd (HCK; read-out: KDapp): 776 nM
- EC50 (HCK): 1500 nM
- pKDapp (HCK): 6.11
- EC50 (ABL2): 3240 nM
- pKDapp (ABL2): 5.97
- Kd (ABL2; read-out: KDapp): 1070 nM
- EC50 (BUB1): 6990 nM
- pKDapp (BUB1): 5.16
- Kd (BUB1; read-out: KDapp): 6990 nM

SMILES: Nc1ccn([C@@H]2O[C@H](CO)[C@@H](O)C2(F)F)c(=O)n1 [GEM, Gemcitabine]
- EC50 (PDO UME051; Homo sapiens, PDO UME051, GEM + Elimusertib (ATRi) dose1, mean of replicates, read-out: EC50 mean): 34.9 nM
- EC50 (PDO UME051; Homo sapiens, PDO UME051, GEM + Elimusertib (ATRi) dose2, mean of replicates, read-out: EC50 mean): 15.3 nM
- EC50 (PDO UME051; Homo sapiens, PDO UME051, GEM + Elimusertib (ATRi) dose3, mean of replicates, read-out: EC50 mean): 8.3 nM
- EC50 (PDO UME051; Homo sapiens, PDO UME051, GEM alone, mean of replicates, read-out: EC50 mean): 33.8 nM
- EC50 (PDO UME051; Homo sapiens, PDO UME051, GEM alone, read-out: EC50 mean): 33.8 nM
- Curve bottom (PDO UME051; [1]): 61.54 and 16.58 and 29.10 and 61.40 and 25.59 and 36.68 and 21.39 and 27.20
- Curve slope (PDO UME051; [1]): 0.20 and 0.21 and 0.19 and 0.27 and 0.15 and 0.25 and 0.16
- Curve top (PDO UME051; [1]): 1.01 and 0.92 and 0.96 and 0.94 and 1.28 and 1.37
- pEC50 (PDO UME051; [1]): 7.21 and 7.78 and 7.54 and 7.59 and 7.44 and 7.67 and 7.57
- EC50 (PDO UME051; PDO UME051, GEM + Elimusertib (ATRi) dose1, per replicate, read-out: EC50): 61.5 nM and 16.6 nM and 29.1 nM and 61.4 nM and 25.6 nM and 36.7 nM and 21.4 nM and 27.2 nM
- Curve bottom (PDO UME051; [2]): 15.70 and 19.38 and 5.56 and 12.34 and 19.98 and 22.85 and 24.50 and 1.89
- Curve slope (PDO UME051; [2]): 0.23 and 0.20 and 0.22 and 0.26 and 0.21 and 0.14 and 0.30
- Curve top (PDO UME051; [2]): 1.02 and 0.95 and 0.89 and 1.03
- Curve bottom (PDO UME051; [3]): 6.82 and 3.16 and 19.99 and 13.79 and 5.24 and 6.23 and 5.82 and 5.38
- Curve slope (PDO UME051; [3]): 0.26 and 0.20 and 0.24 and 0.23 and 0.30 and 0.15 and 0.16
- Curve top (PDO UME051; [3]): 0.75 and 0.88 and 1.32 and 1.31 and 0.95 and 0.93
- pEC50 (PDO UME051; [3]): 8.17 and 8.50 and 7.70 and 7.86 and 8.28 and 8.21 and 8.24 and 8.27
- EC50 (PDO UME051; PDO UME051, GEM + Elimusertib (ATRi) dose3, per replicate, read-out: EC50): 6.82 nM and 3.16 nM and 20 nM and 13.8 nM and 5.24 nM and 6.23 nM and 5.82 nM and 5.38 nM
- Curve bottom (PDO UME051; [4]): 27.81 and 28.79 and 47.23 and 24.70 and 49.88 and 54.38 and 18.12 and 19.12
- Curve slope (PDO UME051; [4]): 0.26 and 0.29 and 0.22 and 0.35 and 0.23 and 0.21 and 0.27 and 0.19
- Curve top (PDO UME051; [4]): 1.27 and 0.99 and 0.93 and 0.97
- pEC50 (PDO UME051; [4]): 7.56 and 7.54 and 7.33 and 7.61 and 7.30 and 7.26 and 7.74 and 7.72
- EC50 (PDO UME051; PDO UME051, GEM alone, per replicate, read-out: EC50): 27.8 nM and 28.8 nM and 47.2 nM and 24.7 nM and 49.9 nM and 54.4 nM and 18.1 nM and 19.1 nM
